Assay [1] deals with surface epithelial cells dissociated from nasal polyp. Put plainly: In vitro model of lesion of the respiratory epithelium: repair index. The conditions noted are these: for repair index: 10 ng/ml. Format: cell-based, human. As to the method:
Surface epithelial cells dissociated from nasal polyp are cultured on a collagen I matrix in RPMI culture medium supplemented with hydrocortisone,retinoic acid, insulin and EGF (epidermal growth factor). After about 3 days of culture, when the cells have become confluent, the supplemented culture medium is replaced with unsupplemented RPMI medium. After incubating for 12 hours in the presence of unsupplemented medium, the culture is placed on the stage of an inverted microscope equipped with a micromanipulator. A microcapillary, guided by the micromanipulator, makes it possible to detach cells, thus creating a wound with a surface area of about 100,000 μm^2. The unsupplemented culture medium is then replaced with culture medium containing only EGF at different concentrations. Video recordings of the injured culture are then made every hour. Using these video recordings, an image analyser makes it possible to monitor the variation of the surface area of the wound as a function of time. A regression line between the surface area of the wound (expressed in μm^2) and the time (expressed in hours) makes it possible to calculate the slope of the regression line obtained, a slope which corresponds to the decrease in the surface area of the wound per unit of time. The latter parameter corresponds to the repair index (the higher the index, the faster the repair).
Eight nasal polyps were used to culture respiratory epithelial cells (5 culture dishes per polyp). In each of these dishes, the injured cultures are incubated either in the presence of unsupplemented culture medium, or in the presence of culture medium supplemented with EGF at various concentrations (5, 10, 20 or 50 ng/ml). From the variation of the surface area as a function of time (the repair index corresponds to the slope of the regression line between the surface area of the wound and time), we calculated the repair index. This index is then expressed relative to the repair index obtained with the EGF-free culture medium used as control. The results obtained show a systematic increase in the repair index for wounds in the presence of EGF. At a concentration of 5 and 10 ng/ml, EGF stimulates the repair by 38% and 36% respectively. At the concentration of 20 ng/ml, the stimulation is 49%.
This study was carried out under the same experimental conditions as above. The repair index for the wounds was quantified in the presence of unsupplemented culture medium and in the presence of culture medium supplemented either with EGF of mouse submaxillary gland (m-EGF: 10 ng/ml), or with recombinant human EGF (h-EGF: 10 ng/ml).

The subject of assay [2] is human respiratory epithelial cells in culture. Put plainly: In vitro model of respiratory epithelium wound repair (30 to 50 cells detached by micromanipulator). The format is cell-based. The conditions noted are these: EGF 10 ng/ml. On the procedure: (§1) The study of the repair of wounds of the respiratory epithelium was performed on an in vitro model. Thirty to 50 cells are detached from the culture by means of a micromanipulator so as to expose the collagen matrix on which the epithelial cells proliferate. The repair of this injured region is monitored as a function of time on cultures in the presence of EGF (10 ng/ml) or in the absence of EGF. For the technique of culture of dissociated cells in a collagen lattice, the effect of EGF on the retraction of the collagen lattice was studied after 8 days of culture. This retraction is quantified by measuring the area of the collagen lattice.

For assay [3], the system named is human respiratory epithelial cells (from nasal polyps). Put plainly: Explant culture of respiratory epithelial cells: growth area around explants. The format is cell-based. The conditions noted are these: increasing EGF concentration up to 20 ng/ml; p<0.05. On the procedure: (§2) Cultures of respiratory epithelial cells are obtained from nasal polyps by the technique of explants (growth of cells around the explant) and by the technique of dissociated cells cultured in a three-dimensional collagen matrix (collagen lattice).
(§3) The explants are cultured in the presence of varying concentrations (0, 5, 10 and 20 ng/ml) of EGF (EGF from mouse submaxillary glands, ref. E 4127, Sigma). The growth area around the explants is quantified after 3 and 4 days of culture. The percentage of growth area covered with ciliated cells as well as the ciliary beat frequency were measured after 3 days of culture. For the collagen lattice culture technique, the number of cells in culture was quantified up to 11 days after of culture, and this in the absence and in the presence of EGF (10 ng/ml).

Assay [4] concerns superficial respiratory epithelial cells. Put plainly: Retraction of the collagen lattice by respiratory epithelial cells. Format: cell-based, human. The conditions noted are these: after 8 days of culture in the presence of EGF. As to the method: as §1
Assay [5] concerns ciliated cells of human respiratory epithelium. Description: Functional activity of ciliated cells in explant culture. Format: cell-based. The conditions noted are these: 20 ng/ml of EGF, after 3 days of culture. On the procedure:
as §2, §3

In assay [6] the test system is human respiratory epithelial cells (from nasal polyps). Put plainly: Dissociated respiratory epithelial cells cultured in a collagen lattice: cell number and morphology. The format is cell-based. As to the method:
as §2, §3

“And” between values parts separate entries of the source, which are not always exact repeats. Equal values may be shown once.

For the substance “EGF: Epidermal Growth Factor polypeptide from mouse submaxillary glands, ref. E 4127, Sigma”, in assay [1], the repair index worked out at 11215 μm^2 /h. Also, the “stimulation of the repair (repair index relative to EGF-free control)” value is 38% in assay [1] (EGF 5 ng/ml); 36% in assay [1] (EGF 10 ng/ml); 49% and ~50% in assay [1] (EGF 20 ng/ml). For the same substance, the “repair index compared with the index obtained with 20 ng/ml of EGF” value in assay [1] (EGF 50 ng/ml, p<0.05) was “significantly (p<0.05) reduced”. For the same substance, the “slope of the regression line (wound repair)” value in assay [2] is recorded as -71.8. In addition, the “growth area around the explants” value in assay [3] was “substantial increase in the growth area”. The collagen lattice area in assay [4] came out at 660 mm^2. This substance had a ciliary beat frequency in assay [5] of 14.5 Hz. Also, the “percentage of the growth surface covered with ciliated cells” value in assay [5] is 43%. In addition, the number of cells entry in assay [6] (after 8 days of culture, in the presence of EGF vs without) was “twice as high”. The “rate of cell proliferation” value in assay [6] (collagen lattice, EGF 10 ng/ml, compared with cultures without EGF) is given as “higher”. Moreover, in assay [6] (collagen lattice, EGF in the culture medium), the “formation of three-dimensional structures” value was “promotes the formation of tubular type three-dimensional structures”.

In the case of “h-EGF: recombinant human EGF (Sigma, Ref. E-3264)”, in assay [1], the repair index is listed as 11492 μm^2 /h.
